Experimental data as given in patent US20240116946A1 (Gilead Sciences, Inc., priority 2022, published 2024).
Where two headings read alike, the source gives them in different places.

Tests used:
[1] = biological target: recombinant SARS-CoV-2 Main protease (Mpro) (Severe acute respiratory syndrome coronavirus 2 (2019-nCoV) (SARS-CoV-2), UniProt P0DTD1); assay: Cov Mpro Biochemical IC50 Assay
SARS-CoV-2-NLuc = assay: microbe, parasite or virus in culture; format: cell-based, SARS Coronavirus 2
[2] = recombinant SARS-CoV-2 Mpro 7.5 nM, fluorogenic peptide substrate 40 μM, read-out: MPro IC50
[3] = Severe acute respiratory syndrome coronavirus, 48 h, read-out: MPro EC50
[4] = recombinant SARS-CoV-2 Mpro, fluorogenic peptide substrate, read-out: MPro IC50
[5] = Severe acute respiratory syndrome coronavirus, 48 h; read-out: MPro EC50

Structure (SMILES) | IC50 [1, 2] | EC50 (SARS-CoV-2-NLuc; [3]) | further results
COc1ccc(Cl)c(-c2cc3[nH]c(=O)n(-c4cncc5ccc(N6CCn7nc(C(F)(F)F)nc7C6)cc45)c(=O)c3s2)c1 [Example 604] | 6.32 nM | 10.9 nM | –
Cc1cc(Cl)cc(Cl)c1-c1cc2[nH]c(=O)n(-c3cncc4ccccc34)c(=O)c2s1 [Example 721] | 705 nM | 478 nM | –
COc1cc(-c2cc3c(s2)c(=O)n(-c2cncc4ccc(C)nc24)c(=O)n3CCC#N)c(Cl)cc1F [Example 906] | 4.35 nM | 2.41 nM | –
COc1cc(-c2cc3c(s2)c(=O)n(-c2cncc(C)c2Cl)c(=O)n3CCC#N)c(Cl)cc1F [Example 944] | 6.67 nM | 8.22 nM | –
O=c1[nH]c2cc(-c3c(Cl)cccc3-c3nc4ccccc4[nH]3)ccc2c(=O)n1-c1cncc2ccccc12 [Example 161, 7-[2-(1H-benzimidazol-2-yl)-6-chloro-phenyl]-3-(4-isoquinolyl)-1H-quinazoline-2,4-dione] | – | 129 nM | IC50 [1, 4]: 27.1 nM
Cc1ccc2cncc(-n3c(=O)[nH]c4cc(-c5ccccc5Cl)sc4c3=O)c2n1 [Example 453, 6-(2-chlorophenyl)-3-(2-methyl-1,6-naphthyridin-8-yl)thieno[3,2-d]pyrimidine-2,4(1H,3H)-dione] | 3.83 nM | 22.1 nM | –
CC(=O)NCCn1c(=O)n(-c2cncc3ccccc23)c(=O)c2sc(-c3ccccc3Cl)cc21 [Example 614] | 35 nM | – | EC50 (SARS-CoV-2-NLuc; read-out: MPro EC50): 64 nM
COc1cc(-c2cc3c(s2)c(=O)n(-c2cncc4cccc(F)c24)c(=O)n3CC#N)c(Cl)cc1F [Example 703] | 3.58 nM | 3.74 nM | –
COCCNc1ccc2cncc(-n3c(=O)[nH]c4cc(-c5ccccc5Cl)sc4c3=O)c2c1 [Example 403] | 6.9 nM | 11.1 nM | –
Cn1cnc2cncc(-n3c(=O)c4sc(-c5cc(F)c(F)cc5Cl)cc4n(CCC#N)c3=O)c21 [Example 852] | 27.4 nM | – | EC50 (SARS-CoV-2-NLuc; [5]): 104 nM
COc1ccc(Cl)c(-c2cc3[nH]c(=O)n(-c4cncc(C)c4OCC(F)(F)F)c(=O)c3s2)c1 [Example 373] | – | – | IC50 [1, 4]: 14.6 nM; EC50 (SARS-CoV-2-NLuc; [5]): 46.9 nM
COc1cc(-c2cc3[nH]c(=O)n(-c4cncc5cnn(CC(F)F)c45)c(=O)c3s2)c(Cl)cc1F [Example 730] | 10.1 nM | 28.9 nM | –
O=c1[nH]c2cc(-c3c(Cl)ccc4c3OCO4)ccc2c(=O)n1-c1cncc2ccccc12 [Example 172] | – | 75.8 nM | IC50 [1, 4]: 159 nM
Cc1nc2cncc(-n3c(=O)c4sc(-c5cc(F)c(F)cc5Cl)cc4n(CCC#N)c3=O)c2n1C [Example 860] | 39.4 nM | 212 nM | –
COc1cc(-c2cc3c(s2)c(=O)n(-c2cncc(Cl)c2C)c(=O)n3CCC#N)c(Cl)cc1F (single isomer, unassigned) [Example 1033, 3-[6-(2-chloro-4-fluoro-5-methoxy-phenyl)-3-(5-chloro-4-methyl-3-pyridyl)-2,4-dioxo-thieno[3,2-d]pyrimidin-1-yl]propanenitrile] | 420 nM | – | EC50 (SARS-CoV-2-NLuc; read-out: MPro EC50): 488 nM
O=c1[nH]c2cc(-c3ccccc3Cl)sc2c(=O)n1-c1cncc2c1CCCO2 [Example 596] | 38.2 nM | 108 nM | –
O=c1[nH]c2cc(-c3ncco3)sc2c(=O)n1-c1cncc2ccccc12 [Example 166, 3-(isoquinolin-4-yl)-6-(oxazol-2-yl)thieno[3,2-d]pyrimidine-2,4(1H,3H)-dione] | – | 4420 nM | IC50 [1, 4]: 942 nM
Cc1nn(C2CCNCC2)cc1-c1cccc(Cl)c1-c1ccc2c(=O)n(-c3cncc4ccccc34)c(=O)[nH]c2c1 [Example 472, 7-[2-chloro-6-[3-methyl-1-(4-piperidyl)pyrazol-4-yl]phenyl]-3-(4-isoquinolyl)-1H-quinazoline-2,4-dione] | 5.11 nM | 188 nM | –
Cc1cc(F)cc(Cl)c1-c1cc2[nH]c(=O)n(-c3cncc4ccccc34)c(=O)c2s1 [Example 720] | 110 nM | 100 nM | –
COc1ccc(Cl)c(-c2ccc3c(=O)n(-c4cncc5ccccc45)c(=S)[nH]c3c2)c1 [Example 240] | – | – | IC50 ([1]; MPro IC50, recombinant SARS-CoV-2 Mpro, fluorogenic peptide substrate): 1660 nM; EC50 (SARS-CoV-2-NLuc; [5]): 520 nM
C#Cc1cc(F)c(OC)cc1-c1cc2c(s1)c(=O)n(-c1cncc3nnn(C4CC4)c13)c(=O)n2CCC#N [Example 882] | 26.3 nM | 69.7 nM | –
COc1cc(-c2cc3c(s2)c(=O)n(-c2cc(C)cnc2F)c(=O)n3CCC#N)c(Cl)cc1F [Example 770] | 6.12 nM | – | EC50 (SARS-CoV-2-NLuc; [5]): 4.8 nM
N#Cc1ccc(OC(F)F)cc1-c1ccc2c(=O)n(-c3cncc4ccccc34)c(=O)[nH]c2c1 [Example 326] | – | 106 nM | IC50 [1, 4]: 42.5 nM
COc1ccc(Cl)c(-c2ccc3c(=O)n(-c4cncc5ccc(N6CC[C@H](OC)C6)cc45)c(=O)[nH]c3c2)c1 [Example 409] | 15.7 nM | 77.4 nM | –
COc1cc(-c2cc3c(s2)c(=O)n(-c2cccnc2)c(=O)n3CCC#N)c(C#N)cc1F [Example 799] | 10.3 nM | – | EC50 (SARS-CoV-2-NLuc; [5]): 42.9 nM
